Laboratory results reported in US11414379B2, “SPAK kinase inhibitors as neuroprotective agents” (United States Government as represented by the Department …, priority 2018, dated 2022).

System: mouse model of ischemic stroke
Assay: Ex vivo MRI (T2WI, DTI) 7 days post-stroke
Format: in vivo
Conditions: p>0.05
Method: For ex-vivo MRI, brains were maintained within the skull to avoid anatomical deformation. After overnight post-fixation in 4% PFA, heads were stored in PBS solution at 4° C. […] was performed at 500 MHz using a Bruker AV3HD 11.7 T/89 mm vertical bore small animal MRI scanner, equipped with a 25-mm quadrature RF coil and Paravision 6.0 (Bruker Biospin, Billerica, Mass.).
In a blinded manner, region of interests (ROIs) were manually drawn for the ipsilateral (IL) and contralateral (CL) cortex, striatum, corpus callosum (CC), and external capsule (EC). Values for the fractional anisotropy (FA), […] diffusion coefficient (ADC), and diffusivity were calculated for the entire volume of each ROI.
Referring to FIG. 15A, representative T2WI images and quantitative analyses of lesion volume and atrophy (shrinkage) of ex vivo brains from vehicle (Veh) control and ZT-1a-treated mice at 7 days post-MCAO are shown. […]
Referring to FIG. 15B, representative images of directionally encoded color (DEC) and fractional anisotropy (FA) maps are shown. […] Bar graphs display quantitation of mean values of FA, mean diffusivity (MD), axial diffusivity (AD) and radial diffusivity (RD) of white matter tissues (CC or EC) of ex vivo brain from vehicle control (Veh) and ZT-1a-treated mice at 7 days post-MCAO. […]

## Cc1cc(C(C#N)c2ccc(Cl)cc2)c(Cl)cc1NC(=O)c1cc(Cl)ccc1O (stereo not shown) [ZT-1a, 5-chloro-N-(5-chloro-4-((4-chlorophenyl)(cyano)methyl)-2-methylphenyl)-2-hydroxy-benzamide]
  EC tract FA values in the IL hemisphere: did not change
